From patent US8871726B2, “C-aryl glucoside derivative, preparation method therefor, and use thereof” (Shanghai Allist Pharmaceuticals, Inc., priority 2010, dated 2014)

Experiments:
human SGLT-1 = biological target: T1, human SGLT-1 (Homo sapiens, UniProt P13866); assay: Inhibitory effect on human SGLT-1 (14C-methyl-a-D-glucopyranoside uptake in transfected NIH3T3 cells); type: cell-based; settings: NIH3T3 cells expressing human SGLT-1; read-out: IC50 value for inhibiting the human SGLT-1
T1 sequence (P13866 1-664): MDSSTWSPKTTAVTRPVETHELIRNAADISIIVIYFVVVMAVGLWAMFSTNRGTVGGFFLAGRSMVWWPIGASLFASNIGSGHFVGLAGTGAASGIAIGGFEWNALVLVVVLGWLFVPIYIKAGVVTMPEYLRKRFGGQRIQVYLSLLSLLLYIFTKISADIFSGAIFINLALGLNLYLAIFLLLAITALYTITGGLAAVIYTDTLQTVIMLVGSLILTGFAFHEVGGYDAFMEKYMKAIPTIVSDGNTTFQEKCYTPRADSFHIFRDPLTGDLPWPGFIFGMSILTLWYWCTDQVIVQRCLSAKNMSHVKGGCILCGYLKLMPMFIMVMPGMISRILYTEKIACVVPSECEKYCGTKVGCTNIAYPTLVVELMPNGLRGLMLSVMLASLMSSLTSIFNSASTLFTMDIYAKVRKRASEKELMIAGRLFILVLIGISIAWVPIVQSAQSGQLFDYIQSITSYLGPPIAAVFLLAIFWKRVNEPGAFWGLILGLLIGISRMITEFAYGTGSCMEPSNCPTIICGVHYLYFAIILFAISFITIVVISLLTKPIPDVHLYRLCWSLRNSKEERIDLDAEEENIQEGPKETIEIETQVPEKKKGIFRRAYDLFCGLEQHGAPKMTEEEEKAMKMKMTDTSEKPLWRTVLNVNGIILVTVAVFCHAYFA
Experimental: (§1) 0.2% gelatin was plated on a 24-well plate, and the plate was kept overnight. The plate was washed with PBS once before use. The NIH3T3 cells expressing human SGLT-1 by transfection were inoculated into the 24-well plate in 100,000 cells per well and 1 mL culture medium per well. On the third day, the culture medium was changed once, and simultaneously sodium butyrate was added thereto with a final concentration of 2 mM. The cells were washed with KRH-Na^+ (500 μL) twice, and then incubated with KRH-Na^+ (500 μL) for 30 minutes. The cells were then treated with 200 μL of KRH-Na^+ containing the compound of Example 2, and 50 μL of an uptake buffer (KRH-Na^+ plus methyl-a-D-[U-14C] glucopyranoside and 1 mM methyl-a-D-glucopyranoside). The cells were washed with 500 μL wash buffer thrice with the operation on ice, and baked overnight. The cells were lysed with 200 μL of 0.25N NaOH at 4° C. for 1 hr. The lysate was removed into an EPPENDORF tube, and centrifuged at 4° C. under 12000 g for 5 mins. […] of supernatant was placed in a 2 mL EPPENDORF tube, and 1.7 mL of scintillation cocktail was added thereto. The mixture was shaked vigorously, and then counted. The inhibition rate of the compound of Example 2 at each of concentrations on the transporting activity was calculated.
(§2) IC50 value could be determined by nonlinear curve fitting of sample activities vs. sample concentrations. […]

normal rat = assay: Effect on the urine glucose excretion of the normal rat; type: in vivo; settings: normal SD rats, single intragastric oral administration, then glucose 2 g/kg; in comparison with the blank control, P<0.01, dosage-dependent
Excerpt: The drug effect of promoting the urine glucose excretion can be determined according to the conventional assay. One preferable evaluation assay is to detect the effect of the present compound on the urine glucose excretion of the normal rat. The assay can be conducted as follows. Thirty 7-week-old male SD rats (about 200 g) are used in the assay. The tested compound having a purity of 97.8% is formulated with 0.75% CMC-Na. […] The SD rats are acclimatized for 7 days, and then placed in the metabolic cages. The rats are fasted overnight (18 hr) under the free access to water. The basic urine samples are collected, and then thirty rats are weighed and grouped randomly into five groups, six rats per group. The rats are administered with the tested compounds or the positive control drug at low dosage, medium dosage, or high dosage. Fifteen minutes after the administration, the rats are intragastrically administrated with 50% glucose solution (2 g/kg). For ensuring a complete collection of the 24-hour urine, the rats are immediately placed in the metabolic cage after the administration of the tested compounds or the positive control drug. One hour after the administration of the glucose solution, the feeds are supplied to the rats. The urines after the administration of the tested compounds or the positive control drug are collected for 24 hours, and then the urine volumes are calculated and the urine glucose concentrations are detected.
The data are analyzed with the software SPSS 12.0, and the quantized data are expressed in “average±standard deviation”. Multiple sets of data are compared according to the analysis of variance (One-way ANOVA). P<0.05 represents statistical difference.
Thirty 7-week-old male SD rats (about 200 g) were used. The compound of Example 2 having a purity of 97.8% was chose as the present compound and formulated with 0.75% CMC-Na. […] The SD rats were acclimatized for 7 days, and then placed in the metabolic cages. The rats were fasted overnight (18 hr) under the free access to water. The basic urine samples were collected, and then thirty rats were weighed and grouped randomly into five groups, six rats per group.
Fifteen minutes after the administration, the rats were intragastrically administrated with 50% glucose solution (2 g/kg). For ensuring a complete collection of the 24-hour urine, the rats were immediately placed in the metabolic cage after the administration of the tested compounds or the positive control drug. […] The urines after the administration of the tested compounds or the positive control drug were collected for 24 hours, and then the urine volumes were calculated and the urine glucose concentrations were detected.
The data were analyzed with the software SPSS 12.0, and the quantized data were expressed in “average±standard deviation”. […]

human SGLT-2 = biological target: T2, human SGLT-2 (Homo sapiens, UniProt P31639); assay: Inhibitory effect on human SGLT-2 (14C-methyl-a-D-glucopyranoside uptake in transfected NIH3T3 cells); type: cell-based; settings: NIH3T3 cells expressing human SGLT-2; read-out: IC50 value for inhibiting the human SGLT-2
T2 construct: expressed in transfected cells; host or cells: NIH3T3 cells
T2 sequence (P31639 1-672): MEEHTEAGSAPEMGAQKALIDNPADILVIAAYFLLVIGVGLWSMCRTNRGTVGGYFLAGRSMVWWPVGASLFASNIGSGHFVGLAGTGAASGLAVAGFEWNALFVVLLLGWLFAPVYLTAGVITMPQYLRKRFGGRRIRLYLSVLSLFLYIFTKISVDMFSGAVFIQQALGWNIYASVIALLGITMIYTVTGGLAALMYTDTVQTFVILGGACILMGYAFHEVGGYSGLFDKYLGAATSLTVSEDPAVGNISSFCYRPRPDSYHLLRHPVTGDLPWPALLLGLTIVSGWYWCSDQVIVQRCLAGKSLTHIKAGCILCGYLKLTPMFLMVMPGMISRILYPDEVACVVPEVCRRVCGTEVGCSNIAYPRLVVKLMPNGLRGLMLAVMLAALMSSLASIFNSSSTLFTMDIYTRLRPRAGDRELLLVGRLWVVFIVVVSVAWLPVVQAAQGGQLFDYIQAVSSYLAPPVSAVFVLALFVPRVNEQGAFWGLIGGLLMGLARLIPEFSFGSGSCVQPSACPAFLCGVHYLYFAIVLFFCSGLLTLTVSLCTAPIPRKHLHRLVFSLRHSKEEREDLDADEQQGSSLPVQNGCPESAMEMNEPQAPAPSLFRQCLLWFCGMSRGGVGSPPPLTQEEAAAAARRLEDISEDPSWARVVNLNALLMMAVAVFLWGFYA
Experimental: as §1, with “SGLT-2” for “SGLT-1”
as §2

Row | SMILES | IC50 (human SGLT-1) | 24-hour urine glucose masses (normal rat) | 24-hour urine volumes (normal rat) | IC50 (human SGLT-2)
1 | CS[C@H]1O[C@@H](c2ccc(C)c(Cc3ccc(-c4ccc(F)cc4)s3)c2)[C@H](O)[C@@H](O)[C@@H]1O [Example 2, (2S,3R,4R,5S,6R)-2-[3-((5-(4-fluorophenyl)thienyl)-2-methylene)-4-methylphenyl)-6-methylthio-tetrahydropyran-3,4,5-triol] | 28.7 µM | remarkably increased | remarkably increased | 0.000172 µM
2 | CCOc1ccc(Cc2cc([C@@H]3O[C@H](CO)[C@@H](O)[C@H](O)[C@H]3O)ccc2Cl)cc1 [Dapagliflozin, reference compound] | – | remarkably increased | remarkably increased | –
